ChEMBL document CHEMBL1145623, “Structure-activity relationships of anthranilamide-based factor Xa inhibitors containing piperidinone and pyridinone P4 moieties” (Bioorg Med Chem Lett, 2008)
In brackets after ≈: the same amount, converted by molar mass.

Experiments:
Canis familiaris [1] = experiment: Volume of distribution at steady state in dog at 0.02 to 0.5 mg/kg, iv and po; format: ADME, organism-based, Canis lupus familiaris; design: dose 0.02-0.5 mg/kg, route oral; details: in vivo
[2] = Bioavailability in dog at 0.02 to 0.5 mg/kg, po; format: ADME, organism-based, Canis lupus familiaris; details: in vivo
Canis familiaris [3] = experiment: Clearance in dog at 0.02 to 0.5 mg/kg, iv and po; format: ADME, organism-based, Canis lupus familiaris; design: dose 0.02-0.5 mg/kg, route oral; details: in vivo
[4] = Half life in dog at 0.02 to 0.5 mg/kg, po; format: ADME, organism-based, Canis lupus familiaris; design: dose 0.02-0.5 mg/kg, route oral; details: in vivo
[5] = Solubility in potassium phosphate buffer at pH 6.5 by thermodynamic equilibrium aqueous solubility assay; format: physicochemical

| Vdss (Canis familiaris [1]) [L/kg] | bioavailability [2] [%] | CL (Canis familiaris [3]) [mL/min/kg] | half-life [4] [h] | solubility thermodynamic [5] [µg/mL] | SMILES |
| --- | --- | --- | --- | --- | --- |
| 2.6 | 18 | 13 | 0.7 | – | COc1cc(Cl)cc(C(=O)Nc2ccc(Cl)cn2)c1NC(=O)c1ccc(-n2ccccc2=O)cc1F |
| – | – | – | – | 912 (≈ 1600 µM) | CN(C)CCOc1cc(Cl)cc(C(=O)Nc2ccc(Cl)cn2)c1NC(=O)c1ccc(N2CCCCC2=O)cc1 |
| 0.81 | 74 | 5 | 1.6 | – | COc1cc(Cl)cc(C(=O)Nc2ccc(Cl)cn2)c1NC(=O)c1ccc(-n2ccccc2=O)nc1 |
| 0.62 | 99 | 11.2 | 0.7 | – | COc1cc(Cl)cc(C(=O)Nc2ccc(Cl)cn2)c1NC(=O)c1ccc(-n2ccccc2=O)cc1 |
| 0.2 | – | 0.33 | 5.8 | – | COc1ccc(-n2nc(C(N)=O)c3c2C(=O)N(c2ccc(N4CCCCC4=O)cc2)CC3)cc1 [APIXABAN] |
| 1.3 | 44 | 12 | 1.5 | 19 (≈ 37 µM) | COc1cc(Cl)cc(C(=O)Nc2ccc(Cl)cn2)c1NC(=O)c1ccc(N2CCCCC2=O)cc1 |
